What was measured:
[1] = tested on: ZEAMX (Corn, Field); experiment: Preemergence herbicidal evaluation; format: in vivo, Zea mays; conditions: rated 4-5 weeks after treatment, rating scale 0-9
Procedure, shortened: (§1)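 Scores use a 0–9 visual scale covering stand, vigor, malformation, size and chlorosis relative to controls, rated four to five weeks after treatment. Before emergence, soil-planted seeds were sprayed with compound in aqueous acetone at roughly 0.0156–0.500 kg/ha and held in the greenhouse.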

[2] = tested on: ZEAMX (Corn, Field); experiment: Postemergence herbicidal evaluation; format: in vivo, Zea mays; conditions: postemergence
Procedure, shortened: (§2)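 ~2-wk seedlings; postemergence spray, 40 psi; vehicle 1:1 acetone:water + 0.5% Tween 20; rate ≈0.0156–0.500 kg/ha; greenhouse hold; scored 4–5 wk after treatment, 0–9 scale vs control; repeat tests averaged.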

[3] = tested on: CASOB (Sicklepod); experiment: Preemergence herbicidal evaluation; format: in vivo, Cassia obtusifolia; conditions: rated 4-5 weeks after treatment, rating scale 0-9
Procedure, shortened: as §1

[4] = tested on: GLXMAW (Soybean, Williams); experiment: Preemergence herbicidal evaluation; format: in vivo, Glycine max, (L.) Merr. cv Williams; conditions: rated 4-5 weeks after treatment, rating scale 0-9
Procedure, shortened: as §1

[5] = tested on: ORYSAT (Rice, Tebonnet); experiment: Postemergence herbicidal evaluation; format: in vivo, Oryza sativa, (L.) Tebonnet; conditions: postemergence
Procedure, shortened: as §2

[6] = tested on: CHEAL (Lambsquarters, Common); experiment: Postemergence herbicidal evaluation; format: in vivo, Chenopodium album; conditions: postemergence
Procedure, shortened: as §2

[7] = tested on: TRZAWR (Wheat, Winter, cv Riband); experiment: Preemergence herbicidal evaluation; format: in vivo, Triticum aestivum; conditions: rated 4-5 weeks after treatment, rating scale 0-9
Procedure, shortened: as §1

[8] = tested on: CHEAL (Lambsquarters, Common); experiment: Preemergence herbicidal evaluation; format: in vivo, Chenopodium album; conditions: rated 4-5 weeks after treatment, rating scale 0-9
Procedure, shortened: as §1

[9] = tested on: IPOHE (Morningglory, Ivyleaf); experiment: Postemergence herbicidal evaluation; format: in vivo, Ipomoea hederacea; conditions: postemergence
Procedure, shortened: as §2

[10] = tested on: IPOHE (Morningglory, Ivyleaf); experiment: Preemergence herbicidal evaluation; format: in vivo, Ipomoea hederacea; conditions: rated 4-5 weeks after treatment, rating scale 0-9
Procedure, shortened: as §1

[11] = tested on: ABUTH (Velvetleaf); experiment: Postemergence herbicidal evaluation; format: in vivo, Abutilon theophrasti; conditions: postemergence
Procedure, shortened: as §2

[12] = tested on: ABUTH (Velvetleaf); experiment: Preemergence herbicidal evaluation; format: in vivo, Abutilon theophrasti; conditions: rated 4-5 weeks after treatment, rating scale 0-9
Procedure, shortened: as §1

[13] = tested on: ECHCG (Barnyardgrass); experiment: Postemergence herbicidal evaluation; format: in vivo, Echinochloa crus-galli; conditions: postemergence
Procedure, shortened: as §2

[14] = tested on: SETVI (Foxtail, Green); experiment: Postemergence herbicidal evaluation; format: in vivo, Setaria viridis; conditions: postemergence
Procedure, shortened: as §2

[15] = tested on: ECHCG (Barnyardgrass); experiment: Preemergence herbicidal evaluation; format: in vivo, Echinochloa crus-galli; conditions: rated 4-5 weeks after treatment, rating scale 0-9
Procedure, shortened: as §1

**Q.** `Cc1cccc(CN2C(=O)CSC2=Nc2cc(-n3c(=O)cc(C(F)(F)F)n(C)c3=O)c(F)cc2Cl)c1` [Compound 130, 3-{4-Chloro-2-fluoro-5-{[3-(m-methylbenzyl)-4-oxo-2-thiazolidinylidene]amino}phenyl}-1-methyl-6-(trifluoromethyl)-2,4 (1H, 3H)-pyrimidinedione] was tested. Which “Preemergence herbicidal rating ZEAMX” value ([1]; rate 0.0156 kg/ha) did it give?
**A.** 0.0

**Q.** And the “Preemergence herbicidal rating ZEAMX” value ([1]; rate 0.0313 kg/ha)?
**A.** 1.0

**Q.** And the “Preemergence herbicidal rating ZEAMX” value ([1]; rate 0.0625 kg/ha)?
**A.** 4.0

**Q.** And the “Preemergence herbicidal rating ZEAMX” value ([1]; rate 0.1250 kg/ha)?
**A.** 7.0

**Q.** What about the “Preemergence herbicidal rating ZEAMX” value ([1]; rate 0.2500 kg/ha) of the same molecule?
**A.** 9.0

**Q.** And the “herbicidal rating ZEAMX” value ([2]; rate 0.0156 kg/ha)?
**A.** 4.5

**Q.** What about the “herbicidal rating ZEAMX” value ([2]; rate 0.0313 kg/ha) of the same molecule?
**A.** 4.5

**Q.** What about the “herbicidal rating ZEAMX” value ([2]; rate 0.0625 kg/ha) of the same molecule?
**A.** 5.0

**Q.** And the “Preemergence herbicidal rating CASOB” value ([3]; rate 0.0156 kg/ha)?
**A.** 0.0

**Q.** And the “Preemergence herbicidal rating CASOB” value ([3]; rate 0.0313 kg/ha)?
**A.** 1.0

**Q.** What about the “Preemergence herbicidal rating CASOB” value ([3]; rate 0.0625 kg/ha) of the same molecule?
**A.** 2.0

**Q.** And the “Preemergence herbicidal rating CASOB” value ([3]; rate 0.2500 kg/ha)?
**A.** 3.0

**Q.** What about the “Preemergence herbicidal rating GLXMAW” value ([4]; rate 0.0156 kg/ha) of the same molecule?
**A.** 0.0

**Q.** What about the “Preemergence herbicidal rating GLXMAW” value ([4]; rate 0.0313 kg/ha) of the same molecule?
**A.** 0.0

**Q.** What about the “Preemergence herbicidal rating GLXMAW” value ([4]; rate 0.0625 kg/ha) of the same molecule?
**A.** 2.0

**Q.** And the “Preemergence herbicidal rating GLXMAW” value ([4]; rate 0.1250 kg/ha)?
**A.** 3.0

**Q.** And the “Preemergence herbicidal rating GLXMAW” value ([4]; rate 0.2500 kg/ha)?
**A.** 5.0

**Q.** What about the “herbicidal rating ORYSAT” value ([5]; rate 0.0156 kg/ha) of the same molecule?
**A.** 3.0

**Q.** What about the “herbicidal rating ORYSAT” value ([5]; rate 0.0313 kg/ha) of the same molecule?
**A.** 3.0

**Q.** What about the “herbicidal rating ORYSAT” value ([5]; rate 0.0625 kg/ha) of the same molecule?
**A.** 3.5

**Q.** And the “herbicidal rating CHEAL” value ([6]; rate 0.0156 kg/ha)?
**A.** 7.0

**Q.** What about the “herbicidal rating CHEAL” value ([6]; rate 0.0313 kg/ha) of the same molecule?
**A.** 9.0

**Q.** And the “herbicidal rating CHEAL” value ([6]; rate 0.0625 kg/ha)?
**A.** 9.0

**Q.** And the “Preemergence herbicidal rating TRZAWR” value ([7]; rate 0.0156 kg/ha)?
**A.** 0.0

**Q.** And the “Preemergence herbicidal rating TRZAWR” value ([7]; rate 0.0313 kg/ha)?
**A.** 0.0

**Q.** And the “Preemergence herbicidal rating TRZAWR” value ([7]; rate 0.0625 kg/ha)?
**A.** 1.0

**Q.** And the “Preemergence herbicidal rating TRZAWR” value ([7]; rate 0.1250 kg/ha)?
**A.** 3.0

**Q.** And the “Preemergence herbicidal rating TRZAWR” value ([7]; rate 0.2500 kg/ha)?
**A.** 6.0

**Q.** What about the “Preemergence herbicidal rating CHEAL” value ([8]; rate 0.0156 kg/ha) of the same molecule?
**A.** 9.0

**Q.** What about the “Preemergence herbicidal rating CHEAL” value ([8]; rate 0.0313 kg/ha) of the same molecule?
**A.** 9.0

**Q.** And the “Preemergence herbicidal rating CHEAL” value ([8]; rate 0.0625 kg/ha)?
**A.** 9.0

**Q.** What about the “Preemergence herbicidal rating CHEAL” value ([8]; rate 0.1250 kg/ha) of the same molecule?
**A.** 9.0

**Q.** What about the “Preemergence herbicidal rating CHEAL” value ([8]; rate 0.2500 kg/ha) of the same molecule?
**A.** 9.0

**Q.** What about the “herbicidal rating IPOHE” value ([9]; rate 0.0156 kg/ha) of the same molecule?
**A.** 9.0

**Q.** What about the “herbicidal rating IPOHE” value ([9]; rate 0.0313 kg/ha) of the same molecule?
**A.** 9.0

**Q.** What about the “herbicidal rating IPOHE” value ([9]; rate 0.0625 kg/ha) of the same molecule?
**A.** 9.0

**Q.** And the “Preemergence herbicidal rating IPOHE” value ([10]; rate 0.0156 kg/ha)?
**A.** 0.0

**Q.** What about the “Preemergence herbicidal rating IPOHE” value ([10]; rate 0.0313 kg/ha) of the same molecule?
**A.** 0.0

**Q.** What about the “Preemergence herbicidal rating IPOHE” value ([10]; rate 0.0625 kg/ha) of the same molecule?
**A.** 2.0

**Q.** What about the “Preemergence herbicidal rating IPOHE” value ([10]; rate 0.1250 kg/ha) of the same molecule?
**A.** 9.0

**Q.** What about the “Preemergence herbicidal rating IPOHE” value ([10]; rate 0.2500 kg/ha) of the same molecule?
**A.** 7.0

**Q.** And the “herbicidal rating ABUTH” value ([11]; rate 0.0156 kg/ha)?
**A.** 9.0

**Q.** What about the “herbicidal rating ABUTH” value ([11]; rate 0.0313 kg/ha) of the same molecule?
**A.** 9.0

**Q.** What about the “herbicidal rating ABUTH” value ([11]; rate 0.0625 kg/ha) of the same molecule?
**A.** 9.0

**Q.** What about the “Preemergence herbicidal rating ABUTH” value ([12]; rate 0.0156 kg/ha) of the same molecule?
**A.** 1.0

**Q.** What about the “Preemergence herbicidal rating ABUTH” value ([12]; rate 0.0313 kg/ha) of the same molecule?
**A.** 9.0

**Q.** What about the “Preemergence herbicidal rating ABUTH” value ([12]; rate 0.0625 kg/ha) of the same molecule?
**A.** 9.0

**Q.** What about the “Preemergence herbicidal rating ABUTH” value ([12]; rate 0.1250 kg/ha) of the same molecule?
**A.** 9.0

**Q.** What about the “Preemergence herbicidal rating ABUTH” value ([12]; rate 0.2500 kg/ha) of the same molecule?
**A.** 9.0

**Q.** And the “herbicidal rating ECHCG” value ([13]; rate 0.0156 kg/ha)?
**A.** 2.0

**Q.** And the “herbicidal rating ECHCG” value ([13]; rate 0.0313 kg/ha)?
**A.** 2.0

**Q.** And the “herbicidal rating ECHCG” value ([13]; rate 0.0625 kg/ha)?
**A.** 3.0

**Q.** And the “herbicidal rating SETVI” value ([14]; rate 0.0156 kg/ha)?
**A.** 4.0

**Q.** What about the “herbicidal rating SETVI” value ([14]; rate 0.0313 kg/ha) of the same molecule?
**A.** 6.0

**Q.** What about the “herbicidal rating SETVI” value ([14]; rate 0.0625 kg/ha) of the same molecule?
**A.** 7.0

**Q.** What about the “Preemergence herbicidal rating ECHCG” value ([15]; rate 0.0156 kg/ha) of the same molecule?
**A.** 0.0

**Q.** And the “Preemergence herbicidal rating ECHCG” value ([15]; rate 0.0313 kg/ha)?
**A.** 0.0

**Q.** What about the “Preemergence herbicidal rating ECHCG” value ([15]; rate 0.0625 kg/ha) of the same molecule?
**A.** 1.0

**Q.** What about the “Preemergence herbicidal rating ECHCG” value ([15]; rate 0.1250 kg/ha) of the same molecule?
**A.** 4.0

**Q.** What about the “Preemergence herbicidal rating ECHCG” value ([15]; rate 0.2500 kg/ha) of the same molecule?
**A.** 7.0

Source: patent publication US20020137929A1, “1 - (3-heterocyclylphenyl) isothiourea, -isourea, -guanidine and -amidine herbicidal agents” (Intellectual Property Department, BASF Aktiengesellschaft, priority 1998, published 2002)
